Experimental data published in patent US4257941A, “Polycyclic nitrogen-containing compounds” (BASF Aktiengesellschaft, priority 1976, dated 1981).
Where two headings read alike, the source gives them in different places.

Assays:
Format in all cases: in vivo
Lolium multifl. = assay: Growth height of Gramineae (Example 11, Table B); details: 3.0 kg/ha, 0 = no inhibition, 100 = no growth; for inhibition at 3000 g/ha: Lolium, read-out: growth inhibition compared with untreated control
From the text: (§1) The vessels used for the experiments were plastic pots having a volume of 1,130 cm^3 (Table A) or paraffined paper cups having a volume of 170 cm^3 (Table B). The pots and cups were filled with a sandy loam. The seeds of the test plants-separated by species-were sown shallow. Preemergence treatment (soil treatment) was effected immediately after sowing and before germination of the seeds. Seeds lying on the surface came into contact with the active ingredients. Postemergence treatment (leaf treatment) took place at an average growth height of the plants (depending on the rate of growth) of from 6 to 10 cm. The substances were suspended, emulsified or dissolved in water as diluent and applied by means of fine nozzles. The vessels were kept in the greenhouse in a temperature range of 12° C. to 25° C., and were regularly sprinkler irrigated for the duration of the experiment. The observation period was 6 to 8 weeks.

Avena sativa = assay: Growth height of Gramineae (Example 11, Table B); details: 3.0 kg/ha, 0 = no inhibition, 100 = no growth; for inhibition at 3000 g/ha: Avena sativa, read-out: growth inhibition compared with untreated control
From the text: as §1

Hordeum vulgare = assay: Growth height of Gramineae (Example 11, Table B); details: 3.0 kg/ha, 0 = no inhibition, 100 = no growth; for inhibition at 3000 g/ha: Hordeum vulgare, read-out: growth inhibition compared with untreated control
From the text: as §1

Cyperus esculentus = assay: Herbicidal action (Example 25); details: preemergence
Outline: (§2)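 Seeds sown by species in sandy loam were treated preemergence right after sowing, or postemergence at 2 to 8 cm plant height, with compounds suspended or emulsified in water and sprayed through fine nozzles. Greenhouse at 12°-25° C. or 18°-35° C. per species; visual damage scored 0–100 after 2 to 6 weeks.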

Euphorbia spp. = assay: Herbicidal action (Example 25); details: preemergence
Outline: as §2

Digitaria sanguinalis = assay: Herbicidal action (Example 25); details: preemergence
Outline: as §2

Cynodon dactylon = assay: Herbicidal action (Example 25); details: preemergence
Outline: as §2

Ipomoea spp. = assay: Herbicidal action (Example 25); details: preemergence
Outline: as §2

Alopecurus myosuroides = assay: Herbicidal action (Example 25); details: Alopecurus myosuroides, pre-emergence, read-out: percentage damage
Outline: as §2

Poa annua = assay: Herbicidal action (Example 25); details: Poa annua, pre-emergence, preemergence, 2.0 kg/ha; read-out: percentage damage
Outline: as §2

Setaria faberii = assay: Herbicidal action (Example 25); details: preemergence
Outline: as §2

Sinapis alba = assay: Herbicidal action (Example 25); details: pre-emergence, preemergence, read-out: percentage damage; for pest or weed control at 2000 g/ha: 2.0 kg/ha
Outline: as §2

Sorghum halepense = assay: Herbicidal action (Example 25); details: preemergence
Outline: as §2

In the case of `Brc1ccc(N2C3C4CC(C5N=NC45)C32)cc1` (centres unmarked), the inhibition at 3000 g/ha (Lolium multifl.; leaf treatment) is reported as 50%, the inhibition at 3000 g/ha (Lolium multifl.; soil treatment) is reported as 50% and the inhibition at 3000 g/ha (Avena sativa; leaf treatment) is reported as 50%. The inhibition at 3000 g/ha (Avena sativa; soil treatment) was 40%, the inhibition at 3000 g/ha (Hordeum vulgare; leaf treatment) was 50% and the inhibition at 3000 g/ha (Hordeum vulgare; soil treatment) was 60%.
Work on `c1ccc(N2C3C4CC(C5N=NC45)C32)cc1` (centres unmarked) [drawing 411] yielded a percentage damage (Cyperus esculentus; 2.0 kg/ha) of 45 percentage damage, a percentage damage (Cyperus esculentus; 4.0 kg/ha) of 60 percentage damage and a percentage damage (Euphorbia spp.; 2.0 kg/ha) of 90 percentage damage. It also gave a percentage damage (Euphorbia spp.; 4.0 kg/ha) of 100 percentage damage, a percentage damage (Digitaria sanguinalis; 2.0 kg/ha) of 70 percentage damage and a percentage damage (Digitaria sanguinalis; 4.0 kg/ha) of 100 percentage damage. For the same compound, the percentage damage (Cynodon dactylon; 2.0 kg/ha) was 65 percentage damage, the percentage damage (Cynodon dactylon; 4.0 kg/ha) was 90 percentage damage and the percentage damage (Ipomoea spp.; 4.0 kg/ha) was 29 percentage damage. It also gave a pest or weed control at 2000 g/ha (Alopecurus myosuroides) of 70% and a pest or weed control at 4000 g/ha (Alopecurus myosuroides) of 83%.
`O=S(=O)(c1ccccc1)N1C2C3CC(C4N=NC34)C21` (centres unmarked) [drawing 419] was tested, and the pest or weed control at 2000 g/ha (Poa annua) was 70%, the percentage damage (Setaria faberii; 2.0 kg/ha) was 40 percentage damage and the percentage damage (Setaria faberii; 4.0 kg/ha) was 100 percentage damage. For the same compound, the pest or weed control at 2000 g/ha (Sinapis alba) was 90%, the percentage damage (Sorghum halepense; 2.0 kg/ha) was 53 percentage damage and the percentage damage (Sorghum halepense; 4.0 kg/ha) was 50 percentage damage.
`Cc1ccc(N2N=NC3C4CC(C5N=NC45)C32)cc1` (centres unmarked) [drawing 413] gave a percentage damage (Cyperus esculentus; 2.0 kg/ha) of 0 percentage damage, a percentage damage (Cyperus esculentus; 4.0 kg/ha) of 0 percentage damage and a percentage damage (Euphorbia spp.; 2.0 kg/ha) of 90 percentage damage. It also gave a percentage damage (Euphorbia spp.; 4.0 kg/ha) of 100 percentage damage, a percentage damage (Digitaria sanguinalis; 2.0 kg/ha) of 100 percentage damage and a percentage damage (Digitaria sanguinalis; 4.0 kg/ha) of 100 percentage damage. For the same compound, the percentage damage (Cynodon dactylon; 2.0 kg/ha) was 83 percentage damage, the percentage damage (Cynodon dactylon; 4.0 kg/ha) was 100 percentage damage and the percentage damage (Ipomoea spp.; 2.0 kg/ha) was 78 percentage damage. It also gave a percentage damage (Ipomoea spp.; 4.0 kg/ha) of 75 percentage damage, a pest or weed control at 2000 g/ha (Alopecurus myosuroides; preemergence, 2.0 kg/ha) of 40% and a pest or weed control at 4000 g/ha (Alopecurus myosuroides; preemergence, 4.0 kg/ha) of 40%.
`Brc1ccc(N2N=NC3C4CC(C5NNC45)C32)cc1` (centres unmarked) showed an inhibition at 3000 g/ha (Lolium multifl.; leaf treatment) of 50%, an inhibition at 3000 g/ha (Lolium multifl.; soil treatment) of 50% and an inhibition at 3000 g/ha (Avena sativa; leaf treatment) of 60%. It also gave an inhibition at 3000 g/ha (Avena sativa; soil treatment) of 60%, an inhibition at 3000 g/ha (Hordeum vulgare; leaf treatment) of 50% and an inhibition at 3000 g/ha (Hordeum vulgare; soil treatment) of 60%.
For `c1ccc(N2N=NC3C4CC(C5N=NC45)C32)cc1` (centres unmarked) [drawing 410], the percentage damage (Cyperus esculentus; 2.0 kg/ha) was 27 percentage damage, the percentage damage (Cyperus esculentus; 4.0 kg/ha) was 55 percentage damage and the percentage damage (Digitaria sanguinalis; 2.0 kg/ha) was 100 percentage damage. It also gave a percentage damage (Cynodon dactylon; 2.0 kg/ha) of 70 percentage damage, a percentage damage (Cynodon dactylon; 4.0 kg/ha) of 90 percentage damage and a percentage damage (Ipomoea spp.; 2.0 kg/ha) of 50 percentage damage. For the same compound, the percentage damage (Ipomoea spp.; 4.0 kg/ha) was 60 percentage damage and the pest or weed control at 4000 g/ha (Alopecurus myosuroides; preemergence, 4.0 kg/ha) was 85%.
For `c1ccc(-n2nccc2N2N=NC3C4CC(C5N=NC45)C32)cc1` (centres unmarked), the “growth inhibition compared with untreated control” value (Lolium multifl.; leaf treatment) was 0%, the “growth inhibition compared with untreated control” value (Avena sativa; leaf treatment) was 20% and the “growth inhibition compared with untreated control” value (Avena sativa; soil treatment) was 60%. For the same compound, the “growth inhibition compared with untreated control” value (Hordeum vulgare; leaf treatment) was 20% and the “growth inhibition compared with untreated control” value (Hordeum vulgare; soil treatment) was 35%.
`Clc1ccc(N2N=NC3C4CC(C5N=NC45)C32)cc1Cl` (centres unmarked) was tested, and the “growth inhibition compared with untreated control” value (Lolium multifl.; leaf treatment) was 25%, the “growth inhibition compared with untreated control” value (Lolium multifl.; soil treatment) was 30% and the “growth inhibition compared with untreated control” value (Avena sativa; leaf treatment) was 40%. The “growth inhibition compared with untreated control” value (Avena sativa; soil treatment) was 30%, the “growth inhibition compared with untreated control” value (Hordeum vulgare; leaf treatment) was 30% and the “growth inhibition compared with untreated control” value (Hordeum vulgare; soil treatment) was 40%.
In the case of `C[N+](C)(C)CCCl` [drawing 370], the inhibition at 3000 g/ha (Lolium multifl.; leaf treatment) is reported as 20%, the inhibition at 3000 g/ha (Lolium multifl.; soil treatment) is reported as 5% and the inhibition at 3000 g/ha (Avena sativa; leaf treatment) is reported as 45%. For the same compound, the inhibition at 3000 g/ha (Avena sativa; soil treatment) was 25%, the inhibition at 3000 g/ha (Hordeum vulgare; leaf treatment) was 10% and the inhibition at 3000 g/ha (Hordeum vulgare; soil treatment) was 10%.
Work on `c1ccc(CN2N=NC3C4CC(C5N=NC45)C32)cc1` (centres unmarked) [drawing 412] yielded a percentage damage (Cyperus esculentus; 2.0 kg/ha) of 55 percentage damage, a percentage damage (Cyperus esculentus; 4.0 kg/ha) of 55 percentage damage and a percentage damage (Cynodon dactylon; 2.0 kg/ha) of 80 percentage damage. It also gave a percentage damage (Cynodon dactylon; 4.0 kg/ha) of 100 percentage damage, a percentage damage (Ipomoea spp.; 2.0 kg/ha) of 0 percentage damage and a percentage damage (Ipomoea spp.; 4.0 kg/ha) of 10 percentage damage. The pest or weed control at 2000 g/ha (Alopecurus myosuroides; preemergence, 2.0 kg/ha) was 55% and the pest or weed control at 4000 g/ha (Alopecurus myosuroides; preemergence, 4.0 kg/ha) was 70%.
`c1ccc(CN2N=NC3C4CC(C5N=NC45)C32)cc1` (centres unmarked) [drawing 417] gave a percentage damage (Setaria faberii; 2.0 kg/ha) of 80 percentage damage, a percentage damage (Setaria faberii; 4.0 kg/ha) of 90 percentage damage and a pest or weed control at 2000 g/ha (Sinapis alba) of 80%. The pest or weed control at 4000 g/ha (Sinapis alba; 4.0 kg/ha) was 95%, the percentage damage (Sorghum halepense; 2.0 kg/ha) was 90 percentage damage and the percentage damage (Sorghum halepense; 4.0 kg/ha) was 90 percentage damage.
